From BindingDB's records for patent US12344597 (Idorsia Pharmaceuticals, 2025)

Target: Lysophosphatidic acid receptor 1 (Homo sapiens, UniProt Q92633)
Experiment: Beta-Arrestin Recruitment Assay
Source text: The Tango™ EDG2-bla U2OS cells are obtained from Invitrogen. These cells contain the human LPA1 receptor cDNA linked to a TEV protease site and a Gal4-VP16 transcription factor integrated into the Tango™ GPCR-bla U2OS parental cell line. This parental cell line stably expresses a beta-arrestin/TEV protease fusion protein and the beta-lactamase (bla) reporter gene under the control of a UAS response element. Upon LPA (agonist) binding, LPA1 receptor gets activated, leading to arrestin-protease recruitment and proteolytic release of the transcription factor: The transcription factor then regulates transcription of a beta-lactamase reporter construct, which is measured upon addition of the live-cell substrate.10′000 Tango™ EDG2-bla U2OS cells are seeded in a 384-well black with clear bottom plate in 30 μl Freestyle 293 Expression Medium (Invitrogen) and incubated for 20 h at 37° C., 5% CO2. […] IC50 is the concentration of antagonist inhibiting 50% of the maximal response.

Chain of Lysophosphatidic acid receptor 1 (Q92633 whole entry): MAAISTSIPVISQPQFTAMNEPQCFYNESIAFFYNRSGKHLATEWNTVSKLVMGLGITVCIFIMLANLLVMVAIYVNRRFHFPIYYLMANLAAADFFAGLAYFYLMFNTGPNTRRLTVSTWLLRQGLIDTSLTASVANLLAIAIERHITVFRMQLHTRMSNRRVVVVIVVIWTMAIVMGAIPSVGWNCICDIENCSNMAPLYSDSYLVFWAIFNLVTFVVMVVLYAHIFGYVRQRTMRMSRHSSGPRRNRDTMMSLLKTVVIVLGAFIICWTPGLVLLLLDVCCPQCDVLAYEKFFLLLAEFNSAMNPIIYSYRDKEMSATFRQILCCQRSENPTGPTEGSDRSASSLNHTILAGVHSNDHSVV

- IC50: 4 nM
Compound: Cc1ccc(NC(=O)C2(c3ccccc3C(C)C)CN(CCC#N)C2)c(OC(F)F)n1 [US12344597, Example 11-16]
